Consider five compounds from patent US6608086B2, “Dihydropyridines and new uses thereof” (Synaptic Pharmaceutical Corporation, priority 1993, dated 2003).

In assay [1] the target is T1, α1A Human Adrenergic Receptor (Homo sapiens, UniProt P25100).
T1 construct: The entire coding region of α1A (1719 bp); expressed in transfected cells
T1 sequence (P25100 1-572): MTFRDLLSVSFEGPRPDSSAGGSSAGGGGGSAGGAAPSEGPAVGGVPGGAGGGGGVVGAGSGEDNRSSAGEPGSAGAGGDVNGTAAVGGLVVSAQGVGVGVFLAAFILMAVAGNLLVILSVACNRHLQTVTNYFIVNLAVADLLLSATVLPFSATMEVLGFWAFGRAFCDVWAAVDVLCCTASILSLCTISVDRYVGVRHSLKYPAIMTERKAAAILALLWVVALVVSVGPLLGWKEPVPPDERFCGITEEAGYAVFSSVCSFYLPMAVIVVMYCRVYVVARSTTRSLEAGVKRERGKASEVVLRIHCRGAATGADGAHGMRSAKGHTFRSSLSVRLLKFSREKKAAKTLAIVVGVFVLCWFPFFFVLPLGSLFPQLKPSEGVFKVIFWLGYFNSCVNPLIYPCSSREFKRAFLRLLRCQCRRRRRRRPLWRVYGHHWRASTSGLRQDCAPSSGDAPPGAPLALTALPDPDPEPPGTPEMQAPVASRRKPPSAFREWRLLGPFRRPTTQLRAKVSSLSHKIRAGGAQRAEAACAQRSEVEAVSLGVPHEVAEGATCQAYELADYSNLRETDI
The experiment in a line: Radioligand binding, [3H]prazosin, cloned human α1A adrenergic receptor. The following applies: pKi alpha-1 1a. In a few lines: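 Transfected LM(tk−) cells are lysed by sonication and membranes collected at 30,000× g. Membranes then bind 0.5 nM [3H]prazosin for 20 min at 37° C, and the reaction is stopped by filtration over GF/B filters, with 10 μM phentolamine giving nonspecific binding.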

The target of another assay is T2, L-type calcium channel (Rattus norvegicus, UniProt P22002).
T2 construct: membrane fragments of rat cardiac muscle; from tissue; host or cells: rat cardiac muscle membranes
The experiment in a line: Competition binding of [3H]nitrendipine to membrane fragments of rat cardiac muscle.

For another assay, the target named is T3, α2C receptor (Homo sapiens, UniProt P18825).
T3 construct: host or cells: LM(tk-) cells, line L-α2C
T3 sequence (P18825 1-462): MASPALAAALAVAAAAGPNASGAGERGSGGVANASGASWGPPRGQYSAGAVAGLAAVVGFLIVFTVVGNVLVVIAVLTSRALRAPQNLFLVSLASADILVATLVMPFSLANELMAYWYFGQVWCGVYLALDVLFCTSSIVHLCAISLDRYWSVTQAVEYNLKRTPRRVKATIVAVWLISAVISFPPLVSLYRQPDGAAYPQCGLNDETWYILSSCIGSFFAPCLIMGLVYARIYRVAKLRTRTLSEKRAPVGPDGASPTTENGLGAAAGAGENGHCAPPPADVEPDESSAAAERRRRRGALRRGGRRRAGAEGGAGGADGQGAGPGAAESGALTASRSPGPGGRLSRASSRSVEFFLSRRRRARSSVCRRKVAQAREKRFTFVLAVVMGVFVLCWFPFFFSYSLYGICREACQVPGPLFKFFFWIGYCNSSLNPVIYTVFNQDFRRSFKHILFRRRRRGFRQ
Briefly: Competition binding, [3H]rauwolscine, human α2C receptor. In a few lines:
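Filter-bound [3H]rauwolscine (0.5 nM) was measured after equilibrium competition with test antagonists on lysates of LM(tk−) cells stably transfected with each human α2 subtype. Buffer: 25 mM glycylglycine, pH 7.6 at room temperature; 10 μM phentolamine gave nonspecific binding.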

Setting [2] is: [3H]prazosin, cloned human α1A receptor, LM(tk−) cell membranes.
The mark [3] stands for this setting: [3H]nitrendipine, rat cardiac muscle membrane fragments, L-type calcium channel, read-out: pKi Ca (converted).
Setting [4] is: [3H]rauwolscine, human α2C receptor, LM(tk−) cells, read-out: pKi alpha-2 2c (converted).

Counter-ions that a name gives are not always drawn. Like-named read-outs stand apart in the source and are kept apart here.

T2 sequence (P22002 whole entry, other chains not shown, the tested form may be a part): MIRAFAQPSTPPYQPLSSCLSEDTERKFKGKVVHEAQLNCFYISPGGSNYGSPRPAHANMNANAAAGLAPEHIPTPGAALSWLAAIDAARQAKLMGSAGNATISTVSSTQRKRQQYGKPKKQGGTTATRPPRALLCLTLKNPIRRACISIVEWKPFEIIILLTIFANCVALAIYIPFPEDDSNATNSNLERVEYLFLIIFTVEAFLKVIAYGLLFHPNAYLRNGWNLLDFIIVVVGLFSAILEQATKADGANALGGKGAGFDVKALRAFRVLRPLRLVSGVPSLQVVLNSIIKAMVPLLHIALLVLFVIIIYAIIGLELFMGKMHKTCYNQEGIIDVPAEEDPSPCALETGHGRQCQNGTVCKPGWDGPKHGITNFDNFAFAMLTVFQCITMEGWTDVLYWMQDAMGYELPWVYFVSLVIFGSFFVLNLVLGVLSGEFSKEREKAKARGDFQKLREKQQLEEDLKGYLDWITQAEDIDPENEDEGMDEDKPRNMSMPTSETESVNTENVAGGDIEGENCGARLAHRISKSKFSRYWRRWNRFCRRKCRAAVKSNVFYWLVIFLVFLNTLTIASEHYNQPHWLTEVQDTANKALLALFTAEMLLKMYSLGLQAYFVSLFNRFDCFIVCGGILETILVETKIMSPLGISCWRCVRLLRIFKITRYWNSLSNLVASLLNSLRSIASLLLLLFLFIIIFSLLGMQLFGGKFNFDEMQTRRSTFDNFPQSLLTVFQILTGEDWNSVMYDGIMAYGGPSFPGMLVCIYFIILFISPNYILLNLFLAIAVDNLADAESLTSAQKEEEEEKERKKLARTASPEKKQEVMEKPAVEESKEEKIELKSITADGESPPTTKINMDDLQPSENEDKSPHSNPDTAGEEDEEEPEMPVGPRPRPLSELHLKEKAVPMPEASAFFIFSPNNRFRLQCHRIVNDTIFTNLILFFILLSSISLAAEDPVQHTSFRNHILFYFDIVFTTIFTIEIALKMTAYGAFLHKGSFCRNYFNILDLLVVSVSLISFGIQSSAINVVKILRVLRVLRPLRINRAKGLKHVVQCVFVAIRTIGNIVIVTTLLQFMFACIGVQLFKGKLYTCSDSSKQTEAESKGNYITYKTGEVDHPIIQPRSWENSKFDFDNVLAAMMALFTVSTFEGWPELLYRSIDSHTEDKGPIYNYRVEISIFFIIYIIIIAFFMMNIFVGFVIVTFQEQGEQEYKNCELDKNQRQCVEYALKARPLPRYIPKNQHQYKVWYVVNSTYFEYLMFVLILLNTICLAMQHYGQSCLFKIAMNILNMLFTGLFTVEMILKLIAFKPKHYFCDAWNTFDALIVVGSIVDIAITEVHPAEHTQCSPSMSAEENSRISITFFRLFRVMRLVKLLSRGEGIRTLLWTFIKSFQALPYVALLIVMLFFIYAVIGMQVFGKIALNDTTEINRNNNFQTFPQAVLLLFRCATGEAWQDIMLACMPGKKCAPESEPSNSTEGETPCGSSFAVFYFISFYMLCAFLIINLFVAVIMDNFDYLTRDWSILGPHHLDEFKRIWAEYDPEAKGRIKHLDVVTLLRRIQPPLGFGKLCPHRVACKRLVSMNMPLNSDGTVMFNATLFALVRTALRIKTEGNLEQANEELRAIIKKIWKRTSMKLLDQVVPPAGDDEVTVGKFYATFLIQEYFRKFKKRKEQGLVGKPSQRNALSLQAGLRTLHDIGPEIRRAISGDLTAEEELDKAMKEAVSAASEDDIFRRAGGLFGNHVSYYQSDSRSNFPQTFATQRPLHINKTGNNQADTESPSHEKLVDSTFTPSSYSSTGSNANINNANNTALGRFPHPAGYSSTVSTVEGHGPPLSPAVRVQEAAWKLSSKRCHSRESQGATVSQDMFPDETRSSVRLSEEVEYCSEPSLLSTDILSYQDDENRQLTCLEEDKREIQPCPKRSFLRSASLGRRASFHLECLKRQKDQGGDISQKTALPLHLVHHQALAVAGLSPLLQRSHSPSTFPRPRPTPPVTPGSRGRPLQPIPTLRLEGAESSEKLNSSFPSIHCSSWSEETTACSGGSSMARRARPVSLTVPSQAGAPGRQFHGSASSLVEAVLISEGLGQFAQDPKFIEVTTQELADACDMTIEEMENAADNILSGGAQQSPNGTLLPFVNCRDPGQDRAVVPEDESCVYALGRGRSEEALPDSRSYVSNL
T2 sequence (P54290 25-944 partner limits assumed, other chains not shown): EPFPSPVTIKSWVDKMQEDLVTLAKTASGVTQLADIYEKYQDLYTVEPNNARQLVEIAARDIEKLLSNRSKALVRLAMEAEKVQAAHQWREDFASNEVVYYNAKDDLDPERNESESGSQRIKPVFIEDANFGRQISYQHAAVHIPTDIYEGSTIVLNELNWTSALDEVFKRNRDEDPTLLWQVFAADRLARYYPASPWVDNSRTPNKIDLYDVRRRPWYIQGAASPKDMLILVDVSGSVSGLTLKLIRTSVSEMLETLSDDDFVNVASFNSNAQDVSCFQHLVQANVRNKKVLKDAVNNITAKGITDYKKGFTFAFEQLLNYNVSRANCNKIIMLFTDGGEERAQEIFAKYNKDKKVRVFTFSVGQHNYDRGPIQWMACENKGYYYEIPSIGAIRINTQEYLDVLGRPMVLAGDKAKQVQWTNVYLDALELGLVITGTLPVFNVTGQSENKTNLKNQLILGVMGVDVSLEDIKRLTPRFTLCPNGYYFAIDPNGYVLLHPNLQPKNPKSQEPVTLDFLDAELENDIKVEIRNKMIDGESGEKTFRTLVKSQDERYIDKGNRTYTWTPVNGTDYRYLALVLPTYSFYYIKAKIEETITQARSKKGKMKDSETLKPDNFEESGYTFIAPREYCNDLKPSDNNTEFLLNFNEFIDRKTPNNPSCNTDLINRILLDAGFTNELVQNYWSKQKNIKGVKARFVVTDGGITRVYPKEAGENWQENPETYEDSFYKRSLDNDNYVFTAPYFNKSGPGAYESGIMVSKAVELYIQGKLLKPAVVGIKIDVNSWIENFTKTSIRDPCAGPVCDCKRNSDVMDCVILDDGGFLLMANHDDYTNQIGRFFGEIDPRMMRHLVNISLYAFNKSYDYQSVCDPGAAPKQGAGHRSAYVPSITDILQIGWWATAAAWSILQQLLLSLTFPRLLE
T2 sequence (P54290 945-1091 partner limits assumed, other chains not shown): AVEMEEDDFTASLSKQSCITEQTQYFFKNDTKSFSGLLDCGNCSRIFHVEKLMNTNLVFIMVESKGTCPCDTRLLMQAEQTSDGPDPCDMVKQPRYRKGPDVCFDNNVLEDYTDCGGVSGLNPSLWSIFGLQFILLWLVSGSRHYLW

In the case of `CC1=C(C(=O)NCCCN2CCC(c3ccccc3)(c3ccccc3)CC2)C(c2ccc([N+](=O)[O-])cc2)C(C(=O)NC(C)C)=C(C)N1` (stereo not drawn) [Example 156, 1,4-Dihydro-3-(N-isopropyl) carboxamido-2,6-dimethyl-4-(4-nitrophenyl)-5-{N-[3-(^414-diphenylpiperidin-1-yl)propyl]}carboxamidopyridine], the Ki in assay [1] (setting [2]) was 1.32 µM; at L-type calcium channel (setting [3]) it was 75.9 µM; on α2C receptor (setting [4]), 0.219 µM.

Regarding `CCC1=C(C(N)=O)C(c2ccc([N+](=O)[O-])cc2)C(C(=O)NCCCN2CCC(O)(c3ccccc3)CC2)=C(CC)N1` (stereo not drawn) [Example 100, 5-Carboxamido-2,6-diethyl-1,4-dihydro-3-{N-(3-(4-hydroxy-4-phenylpiperidin-1-yl)propyl]}carboxamido-4-(4-nitrophenyl)pyridine hydrochloride hydrate], the Ki in assay [1] (setting [2]) is 4.9 µM; at L-type calcium channel (setting [3]), 1000 µM; at α2C receptor (setting [4]), 1.78 µM.

With `COC(=O)C1=C(C)NC(C)=C(C(=O)NCCCN2CCC(c3ccccc3)(c3ccccc3)CC2)C1c1ccc([N+](=O)[O-])c(C)c1` (stereo not drawn) [Example 28], the Ki is 0.437 µM in assay [1] ([3H]prazosin, cloned human receptor in LM(tk-) cell membranes, SEM and n in lines below); 17.4 µM at L-type calcium channel ([3H]nitrendipine, rat cardiac muscle membranes, SEM and n in lines below, read-out: pKi Ca (converted)); 0.631 µM on α2C receptor ([3H]rauwolscine, LM(tk-) cell line L-α2C, SEM and n in lines below, read-out: pKi alpha-2 2c (converted)).

As for `COC(=O)C1=C(C)NC(C)=C(C(=O)NCCCN2CCC(c3ccccc3)(c3ccccc3)CC2)C1c1ccc(Cl)c(Cl)c1` (stereo not drawn) [Example 24, 4-(3,4-Dichlorophenyl)-1,4-dihydro-3-methoxycarbonyl-2,6-dimethyl-5-(3-(D 44-diphenylpiperidin-1-yl)propylcarboxamido)pyridine], the Ki in assay [1] is 0.324 µM; at L-type calcium channel (pKi Ca), 1.95 µM; on α2C receptor (pKi alpha-2 2c), 0.158 µM.

On to `CCC1=C(C(=O)NCCCN2CCC(c3ccccc3)(c3ccccc3)CC2)C(c2ccc(N)cc2)C(C(=O)OC)=C(C)N1` (stereo not drawn) [Example 114, 4-(4-Aminophenyl)-2-ethyl-1,4-dihydro-5-methoxycarbonyl-6-methyl-3-(N-(3-(4,4-diphenylpiperidin-1-yl)propyl)carboxamido)-pyridine], for which the Ki in assay [1] was 0.55 µM; at L-type calcium channel (pKi Ca), 2.88 µM; at α2C receptor (pKi alpha-2 2c), 0.724 µM.
